These results are taken from patent US6867027B1, “RNA polymerase” (The Institute of Physical and Chemical Research, priority 1997, dated 2005).

Format in all cases: biochemical
Assay [1] is described as follows: Inhibition of [α-32P]UTP incorporation by 3′-dATP in the transcription reaction (3′-dNTP incorporation rate). As to conditions: compared with wild type T7 RNA polymerase. As to the method:
Ribonucleotide (NTP) and 3′-deoxynucleotide (3′-dNTP) incorporation rates of the mutant T7 RNA polymerase purified in Example 7 were measured as follows.
pBluescript(KS+) plasmid (Stratagene) linearized by reaction with a restriction endonuclease, PvuII, was used as a template for the transcription reaction, and 250 μM each of ATP, CTP, GTP, and UTP, 2 mM of spermidine-(HCl)3, 5 mM of DTT, 40 mM Tris/HCl pH 8.0, 0.1 μl of [α-^32P] UTP (3000 Ci/mmole), and 25 units of the mutant T7 RNA polymerase F644Y/L665P/F667Y were also used for the reaction. For two kinds of reaction mixture (with or without 3′-dATP, final concentration was 100 μM), the reaction was performed at 37° C. for 60 minutes. The whole reaction mixture was spotted on DE81 paper (Whatman), washed three times with phosphate buffer, and dried. The DE81 paper was placed into a scintillation vial, and radioactivity was measured using a scintillation counter (Beckman) for each reaction. Degree of inhibition of the [α-^32P] UTP incorporation was calculated by comparing the values obtained with and without 3′-dATP based on the measured radioactivity. The relative activity obtained from calculated inhibition degree and defined as a relative value to the inhibition degree of the wild type T7 RNA polymerase normalized to 1.000 was shown in Table 1.
The inhibition degree was calculated by using the wild type T7 RNA polymerase, T7 RNA polymerase F644Y, L665P/F667Y obtained in Example 3, mutant T7 RNA polymerase F644Y/L665P, F782Y, F733Y, F646Y or Y639F constructed and purified in the same manner as in Examples 2 and 3 for the reaction instead of the above F644Y/L665P/F667Y mutant, and relative activities are shown in Table 1.
For example, it is meant that the mutant T7 RNA polymerase F644Y/L665P/F667Y is 5.58 times more likely to incorporate 31-dATP in comparison with the wild type enzyme.

In assay [2] the test system is plasmid vector pBluescriptKS(+) having T7 promoter. Description: Sequencing reaction by the dye terminator method, linearized pBluescriptKS(+) template (Example 5). To be noted: four dye terminators; for sequence reading: 37° C., 1 hour, ABI 377; for peak intensity in sequencing reaction: in comparison with wild type T7 RNA polymerase. As for the experimental part: Sequencing reaction by the dye terminator method was performed utilizing the purified mutant T7 RNA polymerases F644Y and L665P/F667Y, and the wild type T7 RNA polymerase as follows for comparison.
For the in vitro transcription reaction, the method of Melton, D. A. (1984, Nucleic Acids Res., 12:7035-7056) exemplified in Example 4 was used. More specifically, the reaction was performed in a total reaction volume of 10 μl containing a plasmid vector pBluescriptKS (+) having T7 promoter linearized by the reaction with a restriction endonuclease PvuII or ScaI as a template, 5-carboxyrhodamine 6G-labeled 3′-deoxyadenosine-5′-triphosphate, 5-carboxyrhodamine 110-labeled 3′-deoxyguanosine-5′-triphosphate, 5-carboxy-X-rhodamine-labeled 3′-deoxycytidine-5′-triphosphate, and 5-carboxytetramethylrhodamine-labeled 3′-deoxyuridine-5′triphosphate, which were dye terminators prepared according to the method described in W096/14434 as derivatives of 3′-DNTP, 500 μM of GTP and UTP, 250 μM of ATP and CTP, 8 mM of MgCl2, 2 mM of spermidine-(HCl)3, 5 mM of DTT, 40 mM of Tris/HCl pH 8.0 (BRL, Gibco) and 25 units of wild type T7 RNA polymerase (BRL, Gibco or Nippon Gene) or the mutant T7 RNA polymerase F644Y at 37° C. for 1 hour. Then, to remove the unreacted dye terminators remained in the reaction product, the transcription product was purified by gel filtration using Sephadex G-50 column (Pharmacia Biotec), and the purification product was evaporated to dryness using a centrifugal evaporator.
(§1) The dried reaction product was dissolved in 6 μl of formamide/EDTA/Blue dextran loading buffer according to the instruction manual Ver. 1.0 of ABI PRISM 377 DNA Sequencing System available from Perkin-Elmer Japan, and 2 μl of the solution was analyzed by ABI 377 DNA Sequencer and an analysis program using denatured gel for sequencing analysis which contained 6M urea/4% Long Ranger™ acrylamide solution (FMC).

Assay [3] is described as follows: In vitro transcription with a single dye terminator, sequence ladder analysed on ABI 377 (Example 4). As to conditions: for incorporation efficiency for 3′-dCTP derivatives / peak intensities of the sequence ladders: compared with wild type; for peak intensities of the sequence ladders: FIG. 14 and FIG. 15. As to the method:
3′ -DNTP incorporation efficiency of the purified mutant T7 RNA polymerases F644Y and L665P/F667Y was compared with that of wild type T7 RNA polymerase as follows. In vitro transcription reaction was performed by, for example, a partially modified version of the method of Melton, D. A, [Nucleic Acids Res., 12:7035-7056 (1984)]. More specifically, the reaction was performed in a total volume of 10 μl containing a plasmid vector pBluescriptKS(+) having T7 promoter (Stratagene) linearized by the reaction with a restriction endonuclease PvuII or ScaI as a template, 150 μM of 5-carboxy-X-rhodamine-labeled 3′-deoxycytidine-5′-triphosphate which was a dye terminator prepared according to the method described in WO96/14434 as a derivative of 3′-dNTP, 500 μM of GTP and UTP, 250 μM of ATP and CTP, 8 mM Of MgCl2, 2 mM of spermidine-(HCl)3, 5 mM of DTT, 40 mM of Tris/HCl pH 8.0 (BRL, Gibco) and 25 units of wild type T7 RNA polymerase (BRL, Gibco or Nippon Gene) or the mutant T7 RNA polymerase F644Y or L665P/F667Y at 37° C. for 1 hour. Then, to remove the unreacted dye terminator remained in the reaction product, the transcription product was purified by gel filtration using Sephadex G-50 column (Pharmacia Biotec), and the purification product was evaporated to dryness using a centrifugal evaporator.
as §1
The peak intensities of the sequence ladders obtained by using F644Y and L665P/F667Y are shown in FIG. 14 and FIG. 15 with the peak intensity obtained by using wild type T7 RNA polymerase.

Assay [4] concerns DNA containing T7 promoter. Briefly: In vitro RNA synthesis activity (enzyme dilution method, plasmid containing T7 promoter as template). As to conditions: compared with wild type T7 RNA polymerase. From the text: The T7 RNA polymerases introduced with mutations were purified, and their abilities of promoter sequence specific RNA synthesis and incorporation of ribonucleoside 5′-triphosphates including ATP, GTP, CTP, UTP and derivatives thereof, as well as 3′-dATP, 3′-dGTP, 3′-dCTP, 3′-dUTP and derivatives thereof were compared with those of wild type T7 RNA polymerase.
All of the mutant T7 RNA polymerases can be purified by principally the same method. The difference of mutation site may cause some difference in the expression level, and behavior in column chromatography. The purification method of mutant T7 RNA polymerase F644Y is exemplified hereinafter. The expression vector pT7RF644Y for F644Y was introduced into E. coli DH5∝, and the cells were cultured in a test tube containing LB culture medium containing antibiotic ampicillin. When the OD (600 nm) of the medium reached 0.4-0.6, isopropyl-β-thiogalactopyranoside (IPTG) was added to the culture to a final concentration of 0.4 mM, and the cultivation was further continued for additional 8 hours. Then, the E. coli cells were collected by centrifugation. Typically, 2 liters of culture medium affords 10 g of E. coli cells in wet weight. If the E. coli cells are not used immediately, they can be stored in a refrigerator at −20° C. Subsequent steps for purification of enzyme should be performed at a temperature lower than room temperature, preferably 0-5° C. unless otherwise indicated. The E. coli cells were washed with 10 times relative to the cell weight of a washing buffer (20 mM Tris-HCl, pH 8.1, 130 mM NaCl, 2 mM EDTANa2 at 25° C.), centrifuged again [5,000×g, 4° C., 10 minutes), suspended in 10 times in volume of a sonication buffer (50 mM Tris-HCl, pH 8.1, 100 mM NaCl, 0.1 mM EDTANa2, 5 mM dithiothreitol (DTT), 0.1 mM benzamidine, 30 μg/ml phenylmethylsulfonyl fluoride (PMSF), 10 μg/ml bacitracin], and sonicated by using Sonifier 450 (Branson) at 80W for more than 15 minutes to destroy the cells and reduce the viscosity of the cells. […]

In the case of “F644Y/F667Y: mutant T7 RNA polymerase with F644Y and F667Y mutations”, the “ability for incorporating 3′-dATP, 3′-dGTP, 3′-dCTP, 3′-dUTP and derivatives thereof” value (“ability for incorporating 3′-dATP” below) in assay [1] is given as “almost equal to that of the F644Y/L665P/F667Y mutant”.
Regarding “F644Y: T7 RNA polymerase in which F (phenylalanine) 644 was replaced with Y (tyrosine)”, in assay [2], the sequence reading entry is “possible” and the “peak intensity in sequencing reaction” value is reported as “higher peak intensity with less fluctuation”. The “ability for incorporating 3′-dATP” value in assay [1] is “markedly improved”. Besides, the “length of transcription product confirmed” value in assay [3] (150 μM dye terminator, 37° C., 1 hour) is “about 700 bases”. Also, in assay [3] (150 μM dye terminator, 37° C., 1 hour, gel image FIG. 13), the “length of sequence ladder relative to that afforded by the wild type T7 RNA polymerase” value was 3 times. In assay [3], the “incorporation efficiency for 3′-dCTP derivatives” value is reported as “improved”; the “peak intensities of the sequence ladders” value was “less fluctuation in comparison with the wild type, and the peak showed stronger signals”.
With “F667Y: T7 RNA polymerase in which F667 was replaced with Y”, the “ability for incorporating 3′-dATP” value in assay [1] is listed as “comparable to that of the L665P/F667Y mutant”.
In the case of “F733Y: T7 RNA polymerase in which F733 was replaced with Y”, the RNA synthesis activity result in assay [4] is listed as “slightly decreased”. In addition, the “ability for incorporating 3′-dATP” value in assay [1] was “slightly improved”.
Turning to “F782Y: T7 RNA polymerase in which F782 was replaced with Y”, the “ability for incorporating 3′-dATP” value in assay [1] is “slightly improved”.
In the case of “F882Y: T7 RNA polymerase in which F882 was replaced with Y”, the RNA synthesis activity entry in assay [4] is reported as “markedly decreased”.
Consider “L665P/F667Y: mutant T7 RNA polymerase with L665P and F667Y mutations”, for which, in assay [2], the sequence reading result was “possible” and the “peak intensity in sequencing reaction” value was “higher peak intensity with less fluctuation”. Further, in assay [1], the “ability for incorporating 3′-dATP” value is “markedly improved”. Moreover, in assay [3], the “incorporation efficiency for 3′-dCTP derivatives” value is “improved”; the “peak intensities of the sequence ladders” value is “less fluctuation in comparison with the wild type, and the peak showed stronger signals”.
With “Wild type: wild type T7 RNA polymerase, 883 amino acid residues, purified from E. coli harboring pT7R or commercially available [reference compound]”, in assay [2] (listed as wild type T7RNA polymerase (WT)), the sequence reading result is listed as “could not be correctly performed”. For the same substance, the RNA synthesis activity result in assay [4] is “exhibited sufficient RNA synthesis activity”.
